Data as given in patent US20110151529A1, “METHODS AND PROCESSES FOR PRODUCING ORGANIC ACIDS” (THE OHIO STATE UNIVERSITY, priority 2008, published 2011).

Tests used:
[1] = system: C. tyrobutyricum original culture (wild type); experiment: Butyrate inhibition of cell growth, noncompetitive product inhibition model, original culture; assay type: cell-based, Clostridium tyrobutyricum
[2] = system: P. acidipropionici wild type; experiment: Propionic acid inhibition of specific growth rate, free-cell culture, wild type; settings: at 20 g/L propionic acid
[3] = system: P. acidipropionici adapted ACK-Tet from FBB; settings: at 20 g/L propionic acid

With `CCCC(=O)O` [butyric acid] the “butyrate concentration beyond which the culture lost its ability to grow” value [1] was over 20 g/L.
`CCC(=O)O` [propionic acid] was tested, and the growth rate lost [2] was “more than 80%” and the “specific growth rate retained relative to 0 g/L of propionic acid” value [3] was “about 75%”.
